Source: US20150004134A1, “TREATMENT OF CANCER WITH HETEROCYCLIC INHIBITORS OF GLUTAMINASE” (Calithera Biosciences, Inc., priority 2012, published 2015)
Where two headings read alike, the source gives them in different places.

What was measured:
P493-6 (myc "on") cells = assay: Cell Proliferation Assay; type: cell-based; settings: P493-6, 72 h, read-out: Cell prolif P493 72 h IC50, P493-6 cells, 72 h
Outline: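 P493-6 cells with myc on, 10,000 per well in RPMI/10% FBS, exposed to serially diluted compound (0.5% DMSO final) for 72 h at 37 °C, 5% CO2. Antiproliferative effect read by Cell Titer Glo luminescence or Viacount FACS viability count.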

[1] = target: T1, recombinant form of Glutaminase 1 (GAC) (Homo sapiens, UniProt O94925); assay: Recombinant Enzyme Assay - Time Dependence (60 min preincubation); type: biochemical
T1 sequence (O94925 137-598 isoform O94925-3 limits assumed): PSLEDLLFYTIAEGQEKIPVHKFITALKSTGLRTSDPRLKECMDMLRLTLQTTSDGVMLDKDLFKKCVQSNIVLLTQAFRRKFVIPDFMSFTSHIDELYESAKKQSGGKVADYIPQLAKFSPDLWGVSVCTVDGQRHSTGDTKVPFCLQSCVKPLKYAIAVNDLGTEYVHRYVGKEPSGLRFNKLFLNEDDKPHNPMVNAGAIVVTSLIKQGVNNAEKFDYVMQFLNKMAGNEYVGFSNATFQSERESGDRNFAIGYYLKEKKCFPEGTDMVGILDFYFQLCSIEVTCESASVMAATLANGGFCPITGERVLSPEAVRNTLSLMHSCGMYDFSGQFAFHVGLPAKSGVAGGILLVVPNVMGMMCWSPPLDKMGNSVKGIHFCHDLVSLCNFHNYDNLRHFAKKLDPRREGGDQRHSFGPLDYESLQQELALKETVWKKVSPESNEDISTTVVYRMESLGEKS
Experimental: The enzyme/compound mix was sealed with sealing foil (USA Scientific) and allowed to incubate, with mild agitation, for 60 minutes at 20° C. Enzymatic reaction was started with the addition of 50 μL of substrate solution (50 mM Tris-HCl pH 8.0, 0.2 mM EDTA, 150 mM K2HPO4, 0.1 mg/ml BSA, 1 mM DTT, 20 mM L-glutamine, 2 mM NAD^+, and 10 ppm antifoam) and read in a Molecular Devices M5 plate reader at 20° C. The plate reader was configured to read absorbance (=340 nm) in kinetic mode for 15 minutes. Data was recorded as milli-absorbance units per minute and slopes were compared to a control compound and a DMSO-only control on the same plate. Compounds with slopes less than the DMSO control were considered inhibitors and plate variability was assessed using the control compound.

[2] = read-out: GAC Delta N2 IC50 60 min preinc

O=C(Cc1cccc(Cl)c1)Nc1ccc(CCCCc2nnc(NC(=O)C(OC(=O)Cc3cccc(Cl)c3)c3cccc(Cl)c3)s2)nn1 (centres unmarked) [Compound 449]
IC50 (P493-6 (myc "on") cells): 0.12 µM | IC50 [1, 2]: 0.11 µM

O=C(Cc1ccccc1)Nc1ccc(CCCCc2nnc(NC(=O)Cc3cccc(Oc4ccccc4)c3)s2)nn1 [Compound 450]
IC50 (P493-6 (myc "on") cells): 0.042 µM | IC50 [1, 2]: 0.006 µM

CC(=O)Nc1cccc(CC(=O)Nc2nnc(CCCCc3ccc(NC(=O)Cc4ccccc4)nn3)s2)c1 [Compound 451]
IC50 (P493-6 (myc "on") cells): 0.056 µM | IC50 [1, 2]: 0.003 µM

CS(=O)(=O)NCc1cccc(CC(=O)Nc2nnc(CCCCc3ccc(NC(=O)Cc4ccccc4)nn3)s2)c1 [Compound 452]
IC50 (P493-6 (myc "on") cells): 0.049 µM | IC50 [1, 2]: 0.004 µM

CCNC(=O)NCc1cccc(CC(=O)Nc2nnc(CCCCc3ccc(NC(=O)Cc4ccccc4)nn3)s2)c1 [Compound 453]
IC50 (P493-6 (myc "on") cells): 0.015 µM | IC50 [1, 2]: 0.003 µM

O=C(Cc1ccccc1)Nc1ccc(CCCCc2nnc(NC(=O)Cc3cccc(CCNC(=O)c4ccccc4)c3)s2)nn1 [Compound 455]
IC50 (P493-6 (myc "on") cells): 0.012 µM | IC50 [1, 2]: 0.003 µM

CCOC(=O)Cc1cccc(CC(=O)Nc2nnc(CCCCc3ccc(NC(=O)Cc4ccccc4)nn3)s2)c1 [Compound 456]
IC50 (P493-6 (myc "on") cells): 0.024 µM | IC50 [1, 2]: 0.003 µM

CN(C)CC(=O)Nc1cccc(CC(=O)Nc2nnc(CCCCc3ccc(NC(=O)Cc4ccccc4)nn3)s2)c1 [Compound 457]
IC50 (P493-6 (myc "on") cells): 0.11 µM | IC50 [1, 2]: 0.009 µM

CC(=O)Nc1ccc(CCCCc2nnc(NC(=O)Cc3cccc(CNC(=O)c4ccccc4)c3)s2)nn1 [Compound 460]
IC50 (P493-6 (myc "on") cells): 0.031 µM | IC50 [1, 2]: 0.005 µM

CC(=O)Nc1ccc(CCCCc2nnc(NC(=O)Cc3cccc(CNC(=O)Cc4ccccc4)c3)s2)nn1 [Compound 462]
IC50 (P493-6 (myc "on") cells): 0.053 µM | IC50 [1, 2]: 0.006 µM

Nc1ccc(CCCCc2nnc(NC(=O)Cc3cccc(CNC(=O)c4ccccc4)c3)s2)nn1 [Compound 463]
IC50 (P493-6 (myc "on") cells): 0.96 µM | IC50 [1, 2]: 0.052 µM

O=C(O)Cc1cccc(CC(=O)Nc2nnc(CCCCc3ccc(NC(=O)Cc4ccccc4)nn3)s2)c1 [Compound 465]
IC50 (P493-6 (myc "on") cells): 0.92 µM | IC50 [1, 2]: 0.006 µM

NCc1ccccc1CC(=O)Nc1nnc(CCCCc2ccc(NC(=O)Cc3ccccc3)nn2)s1 [Compound 466]
IC50 (P493-6 (myc "on") cells): 1.3 µM | IC50 [1, 2]: 0.051 µM

COc1ccccc1CC(=O)Nc1nnc(CCCCc2ccc(NC(=O)Cc3ccccc3)nn2)s1 [Compound 469]
IC50 (P493-6 (myc "on") cells): 0.049 µM | IC50 [1, 2]: 0.007 µM

CC(C)CNC(=O)Cc1cccc(CC(=O)Nc2nnc(CCCCc3ccc(NC(=O)Cc4ccccc4)nn3)s2)c1 [Compound 470]
IC50 (P493-6 (myc "on") cells): 0.009 µM | IC50 [1, 2]: 0.003 µM

CC(C)(C)CNC(=O)Cc1cccc(CC(=O)Nc2nnc(CCCCc3ccc(NC(=O)Cc4ccccc4)nn3)s2)c1 [Compound 471]
IC50 (P493-6 (myc "on") cells): 0.006 µM | IC50 [1, 2]: 0.003 µM

O=C(Cc1ccccc1)Nc1ccc(CCCCc2nnc(NC(=O)Cc3cccc(CC(=O)N4CCCC4)c3)s2)nn1 [Compound 473]
IC50 (P493-6 (myc "on") cells): 0.006 µM | IC50 [1, 2]: 0.002 µM

O=C(Cc1ccccc1)Nc1ccc(CCCCc2nnc(NC(=O)Cc3cccc(CNC(=O)c4ccc(Br)nn4)c3)s2)nn1 [Compound 475]
IC50 (P493-6 (myc "on") cells): 0.003 µM | IC50 [1, 2]: 0.002 µM

CC1(C)CCN(C(=O)Cc2cccc(CC(=O)Nc3nnc(CCCCc4ccc(NC(=O)Cc5ccccc5)nn4)s3)c2)C1 [Compound 481]
IC50 (P493-6 (myc "on") cells): 0.012 µM | IC50 [1, 2]: 0.004 µM

CC(C)(O)COc1cccc(CC(=O)Nc2nnc(CCCCc3ccc(NC(=O)Cc4ccccc4)nn3)s2)c1 [Compound 482]
IC50 (P493-6 (myc "on") cells): 0.038 µM | IC50 [1, 2]: 0.007 µM

CCCCN(C)C(=O)Cc1cccc(CC(=O)Nc2nnc(CCCCc3ccc(NC(=O)Cc4ccccc4)nn3)s2)c1 [Compound 483]
IC50 (P493-6 (myc "on") cells): 0.009 µM | IC50 [1, 2]: 0.004 µM

CCCN(C)C(=O)Cc1cccc(CC(=O)Nc2nnc(CCCCc3ccc(NC(=O)Cc4ccccc4)nn3)s2)c1 [Compound 484]
IC50 (P493-6 (myc "on") cells): 0.011 µM | IC50 [1, 2]: 0.003 µM

CC(C)CN(C)C(=O)Cc1cccc(CC(=O)Nc2nnc(CCCCc3ccc(NC(=O)Cc4ccccc4)nn3)s2)c1 [Compound 485]
IC50 (P493-6 (myc "on") cells): 0.012 µM | IC50 [1, 2]: 0.004 µM

CCN(C)C(=O)Cc1cccc(CC(=O)Nc2nnc(CCCCc3ccc(NC(=O)Cc4ccccc4)nn3)s2)c1 [Compound 486]
IC50 (P493-6 (myc "on") cells): 0.024 µM | IC50 [1, 2]: 0.004 µM

O=C(Cc1ccccc1)Nc1ccc(CCCCc2nnc(NC(=O)Cc3cccc(CC(=O)N4CCC4)c3)s2)nn1 [Compound 487]
IC50 (P493-6 (myc "on") cells): 0.042 µM | IC50 [1, 2]: 0.005 µM

CCOc1cccc(CC(=O)Nc2nnc(CCCCc3ccc(NC(=O)Cc4ccccc4)nn3)s2)c1 [Compound 488]
IC50 (P493-6 (myc "on") cells): 1.9 µM | IC50 [1, 2]: 0.32 µM

CN1CCN(C(=O)c2cccc(CC(=O)Nc3nnc(CCCCc4ccc(NC(=O)Cc5ccccc5)nn4)s3)c2)CC1 [Compound 490]
IC50 (P493-6 (myc "on") cells): 0.25 µM | IC50 [1, 2]: 0.011 µM

CC(C)(C)NC(=O)Cc1cccc(CC(=O)Nc2nnc(CCCCc3ccc(NC(=O)Cc4ccccc4)nn3)s2)c1 [Compound 495]
IC50 (P493-6 (myc "on") cells): 0.014 µM | IC50 [1, 2]: 0.005 µM

CCCNC(=O)Cc1cccc(CC(=O)Nc2nnc(CCCCc3ccc(NC(=O)Cc4ccccc4)nn3)s2)c1 [Compound 497]
IC50 (P493-6 (myc "on") cells): 0.032 µM | IC50 [1, 2]: 0.004 µM

CC(C)N(C)C(=O)Cc1cccc(CC(=O)Nc2nnc(CCCCc3ccc(NC(=O)Cc4ccccc4)nn3)s2)c1 [Compound 498]
IC50 (P493-6 (myc "on") cells): 0.017 µM | IC50 [1, 2]: 0.003 µM

O=C(Cc1cccs1)Nc1ccc(CCCCc2nnc(NC(=O)Cc3ccccc3)s2)nn1 [Compound 499]
IC50 (P493-6 (myc "on") cells): 0.19 µM | IC50 [1, 2]: 0.01 µM

O=C(Cc1cccc(Cn2cccn2)c1)Nc1ccc(CCCCc2nnc(NC(=O)Cc3ccccc3)s2)nn1 [Compound 500]
IC50 (P493-6 (myc "on") cells): 0.029 µM | IC50 [1, 2]: 0.004 µM

CCOC(=O)Cc1cccc(CC(=O)Nc2ccc(CCCCc3nnc(NC(=O)Cc4ccccc4)s3)nn2)c1 [Compound 501]
IC50 (P493-6 (myc "on") cells): 0.069 µM | IC50 [1, 2]: 0.004 µM

O=C(Cc1cccc(OCCO)c1)Nc1ccc(CCCCc2nnc(NC(=O)Cc3ccccc3)s2)nn1 [Compound 502]
IC50 (P493-6 (myc "on") cells): 0.075 µM | IC50 [1, 2]: 0.007 µM

O=C(Cc1ccccc1)Nc1ccc(CCCCc2nnc(NC(=O)Cc3cccs3)s2)nn1 [Compound 503]
IC50 (P493-6 (myc "on") cells): 0.15 µM | IC50 [1, 2]: 0.008 µM

O=C(Cc1ccccc1)Nc1ccc(CCCCc2nnc(NC(=O)Cc3cccc(OC(CO)CO)c3)s2)nn1 [Compound 505]
IC50 (P493-6 (myc "on") cells): 0.24 µM | IC50 [1, 2]: 0.008 µM

O=C(Cc1ccccc1)Nc1ccc(CCCCc2nnc(NC(=O)Cc3cccc(OC4COC(c5ccccc5)OC4)c3)s2)nn1 (centres unmarked) [Compound 506]
IC50 (P493-6 (myc "on") cells): 0.17 µM | IC50 [1, 2]: 0.01 µM

CC(C)(C)OC(=O)NCc1cccc(CC(=O)Nc2nnc(CCCCc3ccc(NC(=O)C(C)(C)C)nn3)s2)c1 [Compound 510]
IC50 (P493-6 (myc "on") cells): 0.094 µM | IC50 [1, 2]: 0.022 µM

CC(C)(O)Cc1cccc(CC(=O)Nc2nnc(CCCCc3ccc(NC(=O)Cc4ccccc4)nn3)s2)c1 [Compound 513]
IC50 (P493-6 (myc "on") cells): 0.022 µM | IC50 [1]: 0.007 µM

CC(C)(O)CNC(=O)Cc1cccc(CC(=O)Nc2nnc(CCCCc3ccc(NC(=O)Cc4ccccc4)nn3)s2)c1 [Compound 514]
IC50 (P493-6 (myc "on") cells): 0.063 µM | IC50 [1, 2]: 0.009 µM

CCCCNC(=O)Cc1cccc(CC(=O)Nc2ccc(CCCCc3nnc(NC(=O)Cc4ccccc4)s3)nn2)c1 [Compound 516]
IC50 (P493-6 (myc "on") cells): 0.028 µM | IC50 [1]: 0.003 µM

CC(C)CNC(=O)Cc1cccc(CC(=O)Nc2ccc(CCCCc3nnc(NC(=O)Cc4ccccc4)s3)nn2)c1 [Compound 517]
IC50 (P493-6 (myc "on") cells): 0.046 µM | IC50 [1]: 0.003 µM

Cc1nccn1Cc1cccc(CC(=O)Nc2ccc(CCCCc3nnc(NC(=O)Cc4ccccc4)s3)nn2)c1 [Compound 518]
IC50 (P493-6 (myc "on") cells): 0.063 µM | IC50 [1]: 0.004 µM
